The source of these data is paper PMC9203275, “Lysosome lipid signalling from the periphery to neurons regulates longevity” (Nature Cell Biology, 2022).

One assay addresses T1, LBP-3 (Caenorhabditis elegans, UniProt Q20222).
T1 sequence (Q20222 16-165): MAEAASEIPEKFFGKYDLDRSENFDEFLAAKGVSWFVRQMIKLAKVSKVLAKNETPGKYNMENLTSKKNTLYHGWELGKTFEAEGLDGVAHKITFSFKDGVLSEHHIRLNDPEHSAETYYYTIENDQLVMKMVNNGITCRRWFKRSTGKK
The experiment in a line: competitive fluorescence displacement of […],8-ANS. The class given is binding. To be noted: one-site Fit Ki; competition with 1,8-ANS probe.

A further assay has as its target T2, LBP-2 (Caenorhabditis elegans, UniProt Q20224).
T2 sequence (Q20224 19-161): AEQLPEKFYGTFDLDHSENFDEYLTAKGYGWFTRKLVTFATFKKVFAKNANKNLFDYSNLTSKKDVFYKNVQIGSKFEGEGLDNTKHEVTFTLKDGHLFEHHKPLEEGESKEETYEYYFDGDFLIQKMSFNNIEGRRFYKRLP
As to the kind of experiment: mass spectrometry of fatty acids bound after incubation with C. elegans lipid extract. The class given is binding. To be noted: competition within C. elegans lipid extract.

Take `CCCCC/C=C\C/C=C\C/C=C\CCCCCCC(=O)O` [DGLA, dihomo-γ-linolenic acid]: the affinity at LBP-3, expressed as Kd, was 11 µM. Moreover, the “% occupancy among bound PUFAs” value at LBP-2 is 1%.
The matching figures for `CC/C=C\C/C=C\C/C=C\C/C=C\C/C=C\CCCC(=O)O` [EPA, eicosapentaenoic acid]: 4.76 µM and 6%.
